Measurements as given in US20220281848A1, “PYRAZOLE-SUBSTITUTED PYRROLIDINONES AS HERBICIDES” (FMC Corporation, priority 2019, published 2022).

Tested on: plants
Experiment: Test D pre-emergence, other plants of Tables D1 and D3
Type: in vivo
Details: preemergent, 20 DAA
Method in brief: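 Seeds treated with herbicide safener; sown in soil; glasshouse, 16 h light, 65% humidity. Sprayed day 1 (pre) or ~day 12 (post). Spray in 0.2% v/v adjuvant. Scored 0–100 damage: 20 DAA pre, 15 d post.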

CN1CC(c2cc(C(F)(F)F)n(C)n2)C(C(=O)Nc2cccc(F)c2C(F)(F)F)C1=O (racemic) [Compound 19]
damage to plant (100=total damage to plant; 0=no damage to plant), ABUTH (rate 15): 0
damage to plant (100=total damage to plant; 0=no damage to plant), ABUTH (rate 30): 0
damage to plant (100=total damage to plant; 0=no damage to plant), ABUTH (rate 60): 0
damage to plant (100=total damage to plant; 0=no damage to plant), ABUTH (rate 130): 0
damage to plant (100=total damage to plant; 0=no damage to plant), ABUTH (rate 250): 0
damage to plant (100=total damage to plant; 0=no damage to plant), ABUTH (rate 500): 10
damage to plant (100=total damage to plant; 0=no damage to plant), AMARE (rate 15): 0
damage to plant (100=total damage to plant; 0=no damage to plant), AMARE (rate 30): 0
damage to plant (100=total damage to plant; 0=no damage to plant), AMARE (rate 60): 0
damage to plant (100=total damage to plant; 0=no damage to plant), AMARE (rate 130): 0
damage to plant (100=total damage to plant; 0=no damage to plant), AMARE (rate 250): 0
damage to plant (100=total damage to plant; 0=no damage to plant), AMARE (rate 500): 0
damage to plant (100=total damage to plant; 0=no damage to plant), BIDPI (rate 15): 0
damage to plant (100=total damage to plant; 0=no damage to plant), BIDPI (rate 30): 0
damage to plant (100=total damage to plant; 0=no damage to plant), BIDPI (rate 60): 0
damage to plant (100=total damage to plant; 0=no damage to plant), BIDPI (rate 130): 0
damage to plant (100=total damage to plant; 0=no damage to plant), BIDPI (rate 250): 0
damage to plant (100=total damage to plant; 0=no damage to plant), BIDPI (rate 500): 0
damage to plant (100=total damage to plant; 0=no damage to plant), BRAPL (rate 15): 0
damage to plant (100=total damage to plant; 0=no damage to plant), BRAPL (rate 30): 40
damage to plant (100=total damage to plant; 0=no damage to plant), BRAPL (rate 60): 70
damage to plant (100=total damage to plant; 0=no damage to plant), BRAPL (rate 130): 80
damage to plant (100=total damage to plant; 0=no damage to plant), BRAPL (rate 250): 80
damage to plant (100=total damage to plant; 0=no damage to plant), BRAPL (rate 500): 90
damage to plant (100=total damage to plant; 0=no damage to plant), CYPES (rate 15): 0
damage to plant (100=total damage to plant; 0=no damage to plant), CYPES (rate 30): 0
damage to plant (100=total damage to plant; 0=no damage to plant), CYPES (rate 60): 0
damage to plant (100=total damage to plant; 0=no damage to plant), CYPES (rate 130): 0
damage to plant (100=total damage to plant; 0=no damage to plant), CYPES (rate 250): 0
damage to plant (100=total damage to plant; 0=no damage to plant), CYPES (rate 500): 0
damage to plant (100=total damage to plant; 0=no damage to plant), DIGSA (rate 15): 70
damage to plant (100=total damage to plant; 0=no damage to plant), DIGSA (rate 30): 90
damage to plant (100=total damage to plant; 0=no damage to plant), DIGSA (rate 60): 90
damage to plant (100=total damage to plant; 0=no damage to plant), DIGSA (rate 130): 90
damage to plant (100=total damage to plant; 0=no damage to plant), DIGSA (rate 250): 90
damage to plant (100=total damage to plant; 0=no damage to plant), DIGSA (rate 500): 100
damage to plant (100=total damage to plant; 0=no damage to plant), ECHCG (rate 15): 0
damage to plant (100=total damage to plant; 0=no damage to plant), ECHCG (rate 30): 20
damage to plant (100=total damage to plant; 0=no damage to plant), ECHCG (rate 60): 80
damage to plant (100=total damage to plant; 0=no damage to plant), ECHCG (rate 130): 90
damage to plant (100=total damage to plant; 0=no damage to plant), ECHCG (rate 250): 90
damage to plant (100=total damage to plant; 0=no damage to plant), ECHCG (rate 500): 90
damage to plant (100=total damage to plant; 0=no damage to plant), ELEIN (rate 15): 0
damage to plant (100=total damage to plant; 0=no damage to plant), ELEIN (rate 30): 0
damage to plant (100=total damage to plant; 0=no damage to plant), ELEIN (rate 60): 0
damage to plant (100=total damage to plant; 0=no damage to plant), ELEIN (rate 130): 0
damage to plant (100=total damage to plant; 0=no damage to plant), ELEIN (rate 250): 0
damage to plant (100=total damage to plant; 0=no damage to plant), ELEIN (rate 500): 0
damage to plant (100=total damage to plant; 0=no damage to plant), EPHHL (rate 15): 0
damage to plant (100=total damage to plant; 0=no damage to plant), EPHHL (rate 30): 0
damage to plant (100=total damage to plant; 0=no damage to plant), EPHHL (rate 60): 0
damage to plant (100=total damage to plant; 0=no damage to plant), EPHHL (rate 130): 0
damage to plant (100=total damage to plant; 0=no damage to plant), EPHHL (rate 250): 0
damage to plant (100=total damage to plant; 0=no damage to plant), EPHHL (rate 500): 0
damage to plant (100=total damage to plant; 0=no damage to plant), GLXMA (rate 15): 0
damage to plant (100=total damage to plant; 0=no damage to plant), GLXMA (rate 30): 0
damage to plant (100=total damage to plant; 0=no damage to plant), GLXMA (rate 60): 0
damage to plant (100=total damage to plant; 0=no damage to plant), GLXMA (rate 130): 0
damage to plant (100=total damage to plant; 0=no damage to plant), GLXMA (rate 250): 0
damage to plant (100=total damage to plant; 0=no damage to plant), GLXMA (rate 500): 0
damage to plant (100=total damage to plant; 0=no damage to plant), IPOHE (rate 15): 0
damage to plant (100=total damage to plant; 0=no damage to plant), IPOHE (rate 30): 0
damage to plant (100=total damage to plant; 0=no damage to plant), IPOHE (rate 60): 0
damage to plant (100=total damage to plant; 0=no damage to plant), IPOHE (rate 130): 0
damage to plant (100=total damage to plant; 0=no damage to plant), IPOHE (rate 250): 0
damage to plant (100=total damage to plant; 0=no damage to plant), IPOHE (rate 500): 0
damage to plant (100=total damage to plant; 0=no damage to plant), ORYSA (rate 15): 0
damage to plant (100=total damage to plant; 0=no damage to plant), ORYSA (rate 30): 0
damage to plant (100=total damage to plant; 0=no damage to plant), ORYSA (rate 60): 0
damage to plant (100=total damage to plant; 0=no damage to plant), ORYSA (rate 130): 0
damage to plant (100=total damage to plant; 0=no damage to plant), ORYSA (rate 250): 0
damage to plant (100=total damage to plant; 0=no damage to plant), ORYSA (rate 500): 0
damage to plant (100=total damage to plant; 0=no damage to plant), PANMI (rate 15): 0
damage to plant (100=total damage to plant; 0=no damage to plant), PANMI (rate 30): 0
damage to plant (100=total damage to plant; 0=no damage to plant), PANMI (rate 60): 0
damage to plant (100=total damage to plant; 0=no damage to plant), PANMI (rate 130): 0
damage to plant (100=total damage to plant; 0=no damage to plant), PANMI (rate 250): 0
damage to plant (100=total damage to plant; 0=no damage to plant), PANMI (rate 500): 0
damage to plant (100=total damage to plant; 0=no damage to plant), SETFA (rate 15): 0
damage to plant (100=total damage to plant; 0=no damage to plant), SETFA (rate 30): 60
damage to plant (100=total damage to plant; 0=no damage to plant), SETFA (rate 60): 80
damage to plant (100=total damage to plant; 0=no damage to plant), SETFA (rate 130): 90
damage to plant (100=total damage to plant; 0=no damage to plant), SETFA (rate 250): 90
damage to plant (100=total damage to plant; 0=no damage to plant), SETFA (rate 500): 90
damage to plant (100=total damage to plant; 0=no damage to plant), SORVU (rate 15): 0
damage to plant (100=total damage to plant; 0=no damage to plant), SORVU (rate 30): 0
damage to plant (100=total damage to plant; 0=no damage to plant), SORVU (rate 60): 0
damage to plant (100=total damage to plant; 0=no damage to plant), SORVU (rate 130): 0
damage to plant (100=total damage to plant; 0=no damage to plant), SORVU (rate 250): 0
damage to plant (100=total damage to plant; 0=no damage to plant), SORVU (rate 500): 0
